Experimental findings from publication PMC5228037, “Discovery and Mechanistic Characterization of Selective Inhibitors of H2S-producing Enzyme: 3-Mercaptopyruvate Sulfurtransferase (3MST) Targeting Active-site Cysteine Persulfide” (Scientific Reports, 2017) are described below.

A short description of this assay: Reactivity test toward H2S (3rd screening, cysteine-activated H2S donor). The note with it: 40 μM H2S donor, 1 mM L-cysteine, 37 °C 60 min, mean±S.D. n = 4. Here is the method: Reactivity of the hit compounds toward H2S was next examined. The final concentration of the compounds was 10 or 30 μM. The assay protocol was as follows. Compounds were diluted with HSip-1 and cysteine-activated H2S donor[22] solution to 20 or 60 μM solution (15.4% DMSO) with a Multi-Drop and a pipette. Next, 2 mM L-cysteine solution (10 μL, final concentration: 1 mM L-cysteine) was dispensed into the plates (total volume was 20 μL, DMSO 7.7%), and the plates were incubated at 37 °C for 1 hr. The fluorescence of HSip-1 was measured (λex = 490 nm, λem = 510 nm) with a microplate reader. Background control wells (i.e., no addition wells instead of addition of the cysteine-activated H2S donor, n = 16) were also prepared for all plates.
Supplementary Table S2. Inhibition (%) of fluorescence increase caused by H2S in the 3rd […]
Compound 10 µM Compound 30 µM Compound 10 µM Compound 30 µM
All data are presented as the mean±S.D. (n = 4). Conditions: Mixtures of 1 μM HSip-1, 10 or 30 μM test compound, 40 μM H2S donor, 1 mM ʟ-cysteine, and 7.7% DMSO (v/v) were incubated at 37 °C for 60 min. The control with DMSO alone instead of DMSO solution of test compound was taken as 0% inhibition, and the sample without H2S donor was taken as 100% inhibition. […]
directly react with H2S: For this assay, we synthesized a reported small-molecular H2S donorS2 that produces H2S by reacting with cysteine. Each compound (10 or 30 μM) was dissolved in a solution (30 mM HEPES buffer (pH 7.4)) containing 1 μM HSip-1, 40 μM H2S donor, 1 mM ʟ-cysteine and 7.7% (v/v) DMSO as a cosolvent, and the solution was incubated at 37 °C for 60 min. Then, the fluorescence intensities were measured to evaluate the amount of H2S in the solution […]

In the case of `NC(=O)c1ccsc1NC(=O)CSc1nc2ccccc2c(=O)[nH]1` [compound 1], the “Inhibition (%) of fluorescence increase caused by H2S in the 3rd screening” value is on record as 0.2±3.5% (10 μM compound) and 1.0±2.4% (30 μM compound).

Regarding `Cc1sc2nc(SCC(=O)c3ccc(O)cc3O)[nH]c(=O)c2c1C` [compound 2], the “Inhibition (%) of fluorescence increase caused by H2S in the 3rd screening” value came to 6.5±1.8% (10 μM compound) and 19.6±15.3% (30 μM compound).

Regarding `Cc1cc(=O)[nH]c(SCC(=O)c2cccc3ccccc23)n1` [compound 3], the “Inhibition (%) of fluorescence increase caused by H2S in the 3rd screening” value by setting is: (10 μM compound) -3.2±5.0%; (30 μM compound) -3.5±3.9%.

Turning to `O=C(O)c1cccc(NS(=O)(=O)c2ccccc2)c1` [compound 5], the “Inhibition (%) of fluorescence increase caused by H2S in the 3rd screening” value is, setting by setting: (10 μM compound) 2.5±4.5%; (30 μM compound) -1.2±16.3%.
